Measurements from patent US12419873B2, “Use of JAK inhibitors in preparation of drugs for treating JAK kinase-related diseases” (ZHUHAI UNITED LABORATORIES CO., LTD., priority 2020, dated 2025).
“Also recorded” adds a separate entry of the source.

Tests used:
[1] = target: TYK2 (Homo sapiens (Human), UniProt P29597); assay: In vitro activity test of TYK2 kinase; type: biochemical
Description: (§1) Recombinant human JAK1, JAK2, JAK3, TyK2 protease, main instruments and reagents were provided by Eurofins in the UK
(§2) All compounds were prepared into a 100% DMSO solution and reached 50 times the final determined concentration. The test compound was diluted by 3 times the concentration gradient, and the final concentration was 10 μM to 0.001 μM, 9 concentrations in total, and the content of DMSO in the detection reaction was 2%. The working stock solution of the compound was added to a determination hole as the first component of the reaction, and then the remaining components were added according to the detailed scheme determination below.
(§3) Mg/ATP mixture was added to start the reaction. After incubation at room temperature for 40 minutes, 0.5% phosphoric acid was added to stop the reaction.

[2] = target: JAK1 (Homo sapiens (Human), UniProt P23458); assay: In vitro activity test of JAK1 kinase; type: biochemical
Description: as §1, §2, §3

[3] = target: JAK3 (Homo sapiens (Human), UniProt P52333); assay: In vitro activity test of JAK3 kinase; type: biochemical
Description: as §1, §2, §3

[4] = tested on: DSS induced ulcerative colitis and Crohn's disease in mice; assay: In vivo pharmacodynamic study on DSS induced inflammatory bowel disease (IBD) in mice; parameters: species or system mice (C57BL/6); Colon length: unit not given here
Text: Inflammatory bowl disease (IBD) is a kind of recurrent disease. It is difficult to cure, has a high recurrence rate, and has a poor prognosis, it has a certain correlation with the incidence of colon cancer. The development of drugs for the treatment of IBD will help alleviate the symptoms of ulcerative colitis and Crohn's disease and improve the quality of life of patients. The mouse inflammation model induced by dextran sulfate sodium (DSS) is similar to the human disease ulcerative colitis and Crohn's disease. It is a common classical model for preclinical evaluation of drug efficacy.
Preparation method of DSS: 20 g DSS was weighed, 1000 mL drinking water was added to form 2% DSS solution, and stored in a 4° C. refrigerator. It is effective within one month.
Preparation method of a solvent: Vehicle solution is an aqueous solution containing 0.5% methylcellulose and 0.5% Tween 80. Firstly, 5 g of methylcellulose was dissolved in 990 mL of pure water, then 5 g of Tween 80 was added in small amount for many times, mixed evenly and stored at room temperature.
Preparation method of compounds: the compound was weighed, an aqueous solution with a mass ratio of 0.5% methylcellulose+0.5% Tween 80 was added, and it was processed by ultrasonic until it was dissolved.
The adaptation period of the animals was 3 days. After adaptation, the animals were weighed every day. The blank group was given drinking water, and the other groups were given drinking water containing 2% DSS. The water volume was 5 mL/animal/day. The animals in the test drug group were administrated by gavage once a day. The blank group and […] group were given the same volume of vehicle, with the administration volume of 10 mL/kg. Every other day, the fecal viscosity was evaluated, feces were collected for fecal occult blood detection, and the disease activity index (DAI) score was calculated. DSS consumption was detected every day. Fresh DSS solution was replaced every two days. The dosing cycle was continuous intragastric administration for 7 days, followed by 4 days of drug withdrawal, followed by 7 days of continuous intragastric administration. Normal drinking water was changed when intragastric administration was stopped.
DAI is the sum of the scores of body weight, fecal viscosity and fecal occult blood. Among them, the semi quantitative detection method of piramine cave was adopted for detecting fecal occult blood, including adding piramine cave to the sample first, then adding hydrogen peroxide and ethanol solution, and reading and scoring the color within 2 min. Immediately generating purple blue is marked as 4+, generating the purple blue within 10 s is marked as 3+, generating purple red within 1 min is marked as 2+, and gradually generating the purple red within 1-2 min is marked as 1+, and generating no color reaction of purple orchid or purple red within the reading time is recorded as negative (−). After the experiment, the colon and spleen were taken, and the length of colon and the weight of spleen were measured. The spleen index was the ratio of spleen weight to body weight.

[5] = target: JAK2 (Homo sapiens (Human), UniProt O60674); assay: In vitro activity test of JAK2 kinase; conditions: read-out: JAK2 (IC50)
[6] = tested on: DNCB induced allergic dermatitis in mice; assay: In vivo pharmacodynamic study on DNCB induced allergic dermatitis (AD) in mice
Description: The animal allergic dermatitis model induced by 1-chloro-2,4-dinitrobenzene (DNCB) is basically consistent with the clinical manifestations of AD patients.
Preparation method of solvent: vehicle solution is 30% PEG-400+70% (5% HP-β-CD), pH 4-5. Firstly, 35 g HP-β-CD was dissolved in 700 mL MilliQ pure water, 300 mL PEG-400 was added and mixed well, the pH was adjusted to 4-5, and stored at room temperature.
Preparation method of compounds: the compounds were weighed and added to 30% PEG-400+ 70% (5% HP-β-CD) solution (by volume), and ultrasonically processed. After the solution was fully mixed, it is load into glass bottles and stored in a 4° C. refrigerator.
Seventy male Balb/c mice were weighed and randomly divided into 7 groups with 10 mice in each group.
The animal adaptation period was 3 days. It was adapted to shaving on the back. After 2 days, it was sensitized with the modeling solution, coated with 20 μL 0.5% DNCB solution on the right ear of the mouse, applied with 200 μL 0.5% DNCB solution on the back, once a day for 3 days. The mice were stimulated from day 4, and applied with 10 μL 1% DNCB solution on the right ear of mice, 100 μL 1% DNCB solution on the back of mice, respectively, once every 3 days.
On days 3, 9, 15, 21, and 27, the severity of specific dermatitis was evaluated by evaluating four clinical inflammatory indicators of atopic dermatitis: Erythema/bleeding, scar/dryness, edema, and infiltration/erosion. Each evaluation index has four grades: 0, none; 1. slight; 2. moderate; 3. obvious; 4. very obvious. Sum the scores represents score of the skin. […] The spleen was taken and the spleen index was calculated: spleen index=spleen weight (mg)/body weight (g).
The experimental data were expressed by means±standard error (Mean±SEM), and all data were statistically analyzed by one-way ANOVA, with P<0.05 as the statistical difference.

[7] = day 2, 15 mg/kg p.o. qd, Mean±SEM
[8] = day 4, 15 mg/kg p.o. qd, Mean±SEM
[9] = day 6, 15 mg/kg p.o. qd, Mean±SEM
[10] = day 8, 15 mg/kg p.o. qd, Mean±SEM
[11] = day 12, 15 mg/kg p.o. qd, Mean±SEM
[12] = day 14, 15 mg/kg p.o. qd, Mean±SEM
[13] = day 16, 15 mg/kg p.o. qd, Mean±SEM
[14] = day 18, 15 mg/kg p.o. qd, Mean±SEM
[15] = after the experiment, 30 mg/kg p.o. qd, 28 days, Mean±SEM

Sequence of JAK1 (P23458 whole entry): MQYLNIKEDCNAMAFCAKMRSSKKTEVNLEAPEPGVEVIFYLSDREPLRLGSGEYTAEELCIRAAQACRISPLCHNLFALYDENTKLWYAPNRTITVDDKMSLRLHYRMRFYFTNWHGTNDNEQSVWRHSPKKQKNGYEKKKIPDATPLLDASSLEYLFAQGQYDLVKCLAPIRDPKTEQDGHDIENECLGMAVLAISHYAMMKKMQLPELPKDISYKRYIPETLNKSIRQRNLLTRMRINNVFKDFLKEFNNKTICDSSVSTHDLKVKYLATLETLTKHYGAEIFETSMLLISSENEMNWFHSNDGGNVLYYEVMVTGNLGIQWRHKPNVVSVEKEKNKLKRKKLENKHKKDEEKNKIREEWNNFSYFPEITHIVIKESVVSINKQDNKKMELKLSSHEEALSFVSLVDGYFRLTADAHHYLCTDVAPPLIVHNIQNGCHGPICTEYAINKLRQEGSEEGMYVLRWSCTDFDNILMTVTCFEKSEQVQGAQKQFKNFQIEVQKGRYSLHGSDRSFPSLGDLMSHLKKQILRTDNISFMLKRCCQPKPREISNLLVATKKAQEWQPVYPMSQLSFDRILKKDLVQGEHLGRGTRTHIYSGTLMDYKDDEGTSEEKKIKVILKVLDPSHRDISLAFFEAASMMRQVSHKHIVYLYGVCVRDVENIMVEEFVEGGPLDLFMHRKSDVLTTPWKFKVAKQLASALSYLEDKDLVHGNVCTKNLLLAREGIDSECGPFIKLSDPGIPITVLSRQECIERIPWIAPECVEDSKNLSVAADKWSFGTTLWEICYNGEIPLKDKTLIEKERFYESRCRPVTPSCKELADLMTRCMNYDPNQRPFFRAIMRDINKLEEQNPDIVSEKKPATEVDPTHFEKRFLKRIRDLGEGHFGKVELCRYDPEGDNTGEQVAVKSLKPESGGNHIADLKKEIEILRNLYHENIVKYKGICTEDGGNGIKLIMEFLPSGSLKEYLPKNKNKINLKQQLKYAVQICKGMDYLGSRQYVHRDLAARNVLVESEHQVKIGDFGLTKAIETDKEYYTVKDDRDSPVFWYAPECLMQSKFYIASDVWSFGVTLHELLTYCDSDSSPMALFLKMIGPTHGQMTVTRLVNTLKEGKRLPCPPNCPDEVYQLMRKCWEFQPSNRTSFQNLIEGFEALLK
Sequence of JAK3 (P52333 whole entry): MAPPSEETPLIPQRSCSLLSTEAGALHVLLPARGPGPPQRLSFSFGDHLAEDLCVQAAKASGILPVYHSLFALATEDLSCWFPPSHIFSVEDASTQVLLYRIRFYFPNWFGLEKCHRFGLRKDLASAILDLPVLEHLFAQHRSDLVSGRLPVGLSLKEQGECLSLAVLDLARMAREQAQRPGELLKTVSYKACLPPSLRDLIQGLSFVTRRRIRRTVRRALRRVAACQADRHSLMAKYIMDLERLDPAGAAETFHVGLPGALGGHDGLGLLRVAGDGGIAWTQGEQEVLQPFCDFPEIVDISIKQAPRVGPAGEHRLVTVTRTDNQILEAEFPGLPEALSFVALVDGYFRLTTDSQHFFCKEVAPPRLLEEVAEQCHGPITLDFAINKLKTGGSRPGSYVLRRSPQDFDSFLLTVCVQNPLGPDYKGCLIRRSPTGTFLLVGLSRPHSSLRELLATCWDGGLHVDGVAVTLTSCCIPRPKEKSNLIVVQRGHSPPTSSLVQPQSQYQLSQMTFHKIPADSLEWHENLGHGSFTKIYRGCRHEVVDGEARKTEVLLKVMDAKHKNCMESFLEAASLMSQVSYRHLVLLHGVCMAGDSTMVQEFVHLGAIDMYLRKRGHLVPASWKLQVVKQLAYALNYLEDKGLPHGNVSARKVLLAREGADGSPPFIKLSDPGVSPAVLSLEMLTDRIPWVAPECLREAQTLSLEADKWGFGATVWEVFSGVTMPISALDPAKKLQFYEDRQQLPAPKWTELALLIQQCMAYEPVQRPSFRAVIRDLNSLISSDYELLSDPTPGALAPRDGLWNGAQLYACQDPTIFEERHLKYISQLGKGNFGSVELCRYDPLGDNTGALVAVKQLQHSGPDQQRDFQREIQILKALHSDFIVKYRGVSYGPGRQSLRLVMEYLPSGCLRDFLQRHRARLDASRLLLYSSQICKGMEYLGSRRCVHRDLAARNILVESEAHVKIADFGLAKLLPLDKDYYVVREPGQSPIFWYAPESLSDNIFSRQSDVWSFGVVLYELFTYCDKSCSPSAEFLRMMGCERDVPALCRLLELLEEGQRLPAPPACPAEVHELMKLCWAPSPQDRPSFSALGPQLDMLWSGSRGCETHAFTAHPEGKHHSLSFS
Sequence of JAK2 (O60674 whole entry): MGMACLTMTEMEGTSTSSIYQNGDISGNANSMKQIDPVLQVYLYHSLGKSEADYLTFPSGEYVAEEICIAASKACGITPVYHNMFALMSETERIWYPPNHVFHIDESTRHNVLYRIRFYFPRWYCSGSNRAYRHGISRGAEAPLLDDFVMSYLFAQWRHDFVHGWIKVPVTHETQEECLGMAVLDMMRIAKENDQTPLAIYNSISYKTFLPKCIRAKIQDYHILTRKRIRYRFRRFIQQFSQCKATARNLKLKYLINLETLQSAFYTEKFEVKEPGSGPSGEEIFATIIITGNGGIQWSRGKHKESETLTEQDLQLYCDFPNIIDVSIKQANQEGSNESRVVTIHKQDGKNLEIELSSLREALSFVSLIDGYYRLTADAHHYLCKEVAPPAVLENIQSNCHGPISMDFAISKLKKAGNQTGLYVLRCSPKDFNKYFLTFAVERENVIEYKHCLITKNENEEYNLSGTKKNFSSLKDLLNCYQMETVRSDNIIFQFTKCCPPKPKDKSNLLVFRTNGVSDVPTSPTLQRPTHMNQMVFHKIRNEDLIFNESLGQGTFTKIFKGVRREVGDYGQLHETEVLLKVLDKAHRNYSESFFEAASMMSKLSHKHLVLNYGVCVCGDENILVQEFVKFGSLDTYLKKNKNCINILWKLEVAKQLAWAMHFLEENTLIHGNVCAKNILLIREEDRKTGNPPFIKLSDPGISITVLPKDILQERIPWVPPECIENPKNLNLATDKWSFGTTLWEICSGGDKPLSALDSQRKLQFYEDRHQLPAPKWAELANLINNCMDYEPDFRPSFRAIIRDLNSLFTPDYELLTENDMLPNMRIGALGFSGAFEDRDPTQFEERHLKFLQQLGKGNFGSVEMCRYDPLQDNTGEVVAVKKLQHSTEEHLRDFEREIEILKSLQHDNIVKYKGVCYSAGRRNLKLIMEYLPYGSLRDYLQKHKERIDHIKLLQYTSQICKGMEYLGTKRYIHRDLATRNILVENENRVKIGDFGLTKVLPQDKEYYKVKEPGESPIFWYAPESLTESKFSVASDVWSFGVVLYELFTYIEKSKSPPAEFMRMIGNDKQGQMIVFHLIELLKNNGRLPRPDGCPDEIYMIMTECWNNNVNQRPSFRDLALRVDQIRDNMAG
Sequence of TYK2 (P29597 whole entry): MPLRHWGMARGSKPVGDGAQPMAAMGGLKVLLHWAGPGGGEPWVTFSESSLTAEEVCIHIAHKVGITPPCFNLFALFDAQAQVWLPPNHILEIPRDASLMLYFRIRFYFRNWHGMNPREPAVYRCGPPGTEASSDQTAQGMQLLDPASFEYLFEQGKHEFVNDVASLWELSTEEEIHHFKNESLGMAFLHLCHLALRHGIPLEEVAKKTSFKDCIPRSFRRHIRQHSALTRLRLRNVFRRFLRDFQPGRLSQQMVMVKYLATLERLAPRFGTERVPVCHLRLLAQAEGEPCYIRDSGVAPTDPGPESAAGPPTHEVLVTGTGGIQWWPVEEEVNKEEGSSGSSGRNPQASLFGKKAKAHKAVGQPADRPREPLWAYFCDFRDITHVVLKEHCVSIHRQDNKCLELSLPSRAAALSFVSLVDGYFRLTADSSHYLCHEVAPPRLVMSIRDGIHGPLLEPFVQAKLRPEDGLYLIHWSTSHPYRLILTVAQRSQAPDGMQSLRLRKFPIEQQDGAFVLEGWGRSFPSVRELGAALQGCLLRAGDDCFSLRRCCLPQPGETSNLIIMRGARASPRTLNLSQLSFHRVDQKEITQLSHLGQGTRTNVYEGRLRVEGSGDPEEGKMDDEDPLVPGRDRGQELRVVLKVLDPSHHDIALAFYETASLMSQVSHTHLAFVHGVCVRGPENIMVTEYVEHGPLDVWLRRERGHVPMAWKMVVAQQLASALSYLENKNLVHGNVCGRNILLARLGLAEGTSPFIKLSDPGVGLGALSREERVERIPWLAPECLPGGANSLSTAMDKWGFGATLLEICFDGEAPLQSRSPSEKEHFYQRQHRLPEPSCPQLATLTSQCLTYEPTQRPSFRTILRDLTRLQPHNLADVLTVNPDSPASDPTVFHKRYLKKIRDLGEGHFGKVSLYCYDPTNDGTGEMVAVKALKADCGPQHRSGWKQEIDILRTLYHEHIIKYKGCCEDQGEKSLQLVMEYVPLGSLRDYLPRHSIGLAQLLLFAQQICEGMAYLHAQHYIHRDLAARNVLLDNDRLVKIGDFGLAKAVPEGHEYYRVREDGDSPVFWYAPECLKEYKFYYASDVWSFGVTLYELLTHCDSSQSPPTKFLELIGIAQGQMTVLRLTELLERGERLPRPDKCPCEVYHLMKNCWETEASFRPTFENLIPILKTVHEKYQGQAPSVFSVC

## O=C(Nc1nc2cccc(C3CCC4(CC3)CN(C(=O)[C@H]3CC3(F)F)C4)n2n1)[C@@H]1CC1(F)F [Compound 9-3]
[1]
  IC50: 105 nM
[2]
  IC50: 7 nM
[3]
  IC50: > 10000 nM
[4]; 15 mg/kg p.o.
  Colon shortening caused by DSS, compared with DSS group (in words): can reduce colon shortening
  Increase of spleen index induced by DSS (in words): could reduce the increase of spleen index
[4]; after the experiment, 15 mg/kg p.o. qd, Mean±SEM
  Colon length: 2.87 ± 0.11
[4]; day 1, 15 mg/kg p.o. qd, Mean±SEM
  Weight of mice: 22.26 ± 0.29
[4]; [7]
  DAI score: 0.40 ± 0.16
  Weight of mice: 22.48 ± 0.29
[4]; day 3, 15 mg/kg p.o. qd, Mean±SEM
  Weight of mice: 22.39 ± 0.27
[4]; [8]
  DAI score: 1.70 ± 0.54
  Weight of mice: 22.26 ± 0.31
[4]; day 5, 15 mg/kg p.o. qd, Mean±SEM
  Weight of mice: 22.18 ± 0.40
[4]; [9]
  DAI score: 2.40 ± 0.37
  Weight of mice: 22.00 ± 0.43
[4]; day 7, 15 mg/kg p.o. qd, Mean±SEM
  Weight of mice: 21.21 ± 0.53
[4]; [10]
  DAI score: 4.70 ± 0.94
  Weight of mice: 20.72 ± 0.67
[4]; day 9, 15 mg/kg p.o. qd, Mean±SEM
  Weight of mice: 19.89 ± 0.37
[4]; day 10, 15 mg/kg p.o. qd, Mean±SEM
  Weight of mice: 18.92 ± 0.47
[4]; day 11, 15 mg/kg p.o. qd, Mean±SEM
  Weight of mice: 18.60 ± 0.62
[4]; [11]
  DAI score: 4.11 ± 0.53
  Weight of mice: 18.50 ± 0.74
[4]; day 13, 15 mg/kg p.o. qd, Mean±SEM
  Weight of mice: 19.42 ± 0.78
[4]; [12]
  DAI score: 4.88 ± 0.44
  Weight of mice: 19.26 ± 0.93
[4]; day 15, 15 mg/kg p.o. qd, Mean±SEM
  Weight of mice: 19.96 ± 0.84
[4]; [13]
  DAI score: 3.67 ± 0.86
  Weight of mice: 20.84 ± 0.46
[4]; day 17, 15 mg/kg p.o. qd, Mean±SEM
  Weight of mice: 20.42 ± 0.50
[4]; [14]
  DAI score: 4.83 ± 0.68
  Weight of mice: 19.78 ± 0.43
[4]; ratio of spleen weight to body weight, 15 mg/kg p.o. qd, Mean±SEM
  Spleen index: 4.98 ± 0.40
[5]
  IC50: 292 nM
[6]; 30 mg/kg p.o. qd, 28 days
  Effect on the weight of mice (in words): no significant effect
[6]; 30 mg/kg p.o. qd, DNCB mice
  Effect on treating allergic dermatitis (in words): good disease treatment effect; also recorded: significant effect
[6]; 30 mg/kg p.o., vs DNCB group
  Concentration of IgE in serum after drug intervention (in words): significantly decreased
  Spleen index after drug intervention (in words): significantly decreased
  Thickness of the right ear after drug intervention (in words): significantly decreased
[6]; [15]
  IgE concentration in serum: 6.39 ± 1.04
  Thickness of the right ear: 0.252 ± 0.006
[6]; day 1, 30 mg/kg p.o. qd from day 4, Mean±SEM
  Weight of mice: 19.32 ± 0.46
[6]; day 3, 30 mg/kg p.o. qd from day 4, Mean±SEM
  Skin score: 0.7 ± 0.5
[6]; day 4, 30 mg/kg p.o. qd, Mean±SEM
  Weight of mice: 20.02 ± 0.41
[6]; day 7, 30 mg/kg p.o. qd, Mean±SEM
  Weight of mice: 19.24 ± 0.47
[6]; day 9, 30 mg/kg p.o. qd, Mean±SEM
  Skin score: 3.4 ± 0.7
[6]; day 10, 30 mg/kg p.o. qd, Mean±SEM
  Weight of mice: 19.41 ± 0.58
[6]; day 13, 30 mg/kg p.o. qd, Mean±SEM
  Weight of mice: 20.83 ± 0.42
[6]; day 15, 30 mg/kg p.o. qd, Mean±SEM
  Skin score: 4.2 ± 0.6
[6]; day 16, 30 mg/kg p.o. qd, Mean±SEM
  Weight of mice: 21.49 ± 0.45
[6]; day 19, 30 mg/kg p.o. qd, Mean±SEM
  Weight of mice: 23.36 ± 0.38
[6]; day 21, 30 mg/kg p.o. qd, Mean±SEM
  Skin score: 5.4 ± 0.9
[6]; day 22, 30 mg/kg p.o. qd, Mean±SEM
  Weight of mice: 23.67 ± 0.37
[6]; day 25, 30 mg/kg p.o. qd, Mean±SEM
  Weight of mice: 23.14 ± 0.42
[6]; day 27, 30 mg/kg p.o. qd, Mean±SEM
  Skin score: 2.2 ± 0.9
[6]; day 27 of administration, 30 mg/kg p.o.
  Skin score compared with DNCB group (in words): significant reduction
[6]; day 28, 30 mg/kg p.o. qd, Mean±SEM
  Weight of mice: 24.15 ± 0.50
[6]; spleen weight (mg)/body weight (g), 30 mg/kg p.o. qd, 28 days, Mean±SEM
  Spleen index: 4.17 ± 0.65

## O=C(Nc1nc2cccc([C@H]3CCC4(CCN(C(=O)[C@@H]5CC5(F)F)CC4)C3)n2n1)C1CC1 (single isomer, unassigned) [Compound 6-7]
[1]
  IC50: 829 nM
[2]
  IC50: 63 nM
[3]
  IC50: 9390 nM
[5]
  IC50: 998 nM

## O=C(Nc1nc2cccc(C3CCC4(CC3)CN(C(=O)[C@H]3CC3(F)F)C4)n2n1)[C@H]1CC1(F)F [Compound 8-6]
[1]
  IC50: 127 nM
[2]
  IC50: 14 nM
[3]
  IC50: 7640 nM
[5]
  IC50: 110 nM

## O=C(Nc1nc2cccc([C@@H]3CCC4(CCN(C(=O)[C@@H]5CC5(F)F)CC4)C3)n2n1)C1CC1 (single isomer, unassigned) [Compound 6-8]
[1]
  IC50: 570 nM
[2]
  IC50: 381 nM
[3]
  IC50: > 10000 nM
[5]
  IC50: 1920 nM

## N#CCN1CC2(CCC(c3cccc4nc(NC(=O)[C@H]5CC5(F)F)nn34)CC2)C1 [Compound 8-9]
[1]
  IC50: 1330 nM
[2]
  IC50: 52 nM
[3]
  IC50: > 10000 nM
[5]
  IC50: 3670 nM

## O=C(Nc1nc2cccc(C3CCC4(CC3)CCN(C(=O)C3CC3(F)F)C4)n2n1)C1CC1 (single isomer, unassigned) [Compound 5-8]
[1]
  IC50: 692 nM
[2]
  IC50: 75 nM
[3]
  IC50: 7350 nM
[5]
  IC50: 789 nM
